From patent US20080045495A1, “Treatment of Patients with Cystic Disease by Alteration of Fibrocystin Proteolysis” (BOARD OF REGENTS, THE UNIVERSITY OF TEXAS SYSTEM, priority 2006, published 2008) come the findings set out here.

In test [1] the test system is fibrocystin cleavage in HEK-293 cells. The test is described as follows: Luciferase reporter assay of fibrocystin cleavage (pFC-GV / pG5-luc) in HEK-293 cells. The conditions noted are these: 5 mM caffeine versus vehicle, HEK-293, 12 hours, FIG. 4D. Format: cell-based, human. The procedure:
(§1) Reporter Gene Assays—mIMCD-3 cells, HEK-293 cells, or HeLa cells were plated in 6-well dishes (3×10^5 cells/well) and cotransfected with 0.05 μg phRL-TK(Int−) encoding Renilla luciferase (Promega, Madison, Wis.), 0.1 μg Photinus luciferase reporter plasmids, and 0.01-0.3 μg effector plasmids. Luciferase assays were performed as described previously (Hiesberger, 2004). Relative luciferase activity was calculated as the ratio of Photinus and Renilla luciferase.
(§2) FIG. 4 A is an image of a gel illustrating mIMCD3/FC cells were grown for 4 days and incubated with 0.1 μM thapsigargin (lane 2), 5 mM caffeine (lane 3), 75 μM dantrolene (lane 5), 200 μM ruthenium red (lane 7), or no additions (lanes 1, 4 and 6). After 2 hours, media were replaced with media lacking serum but containing the same supplements, and, in addition, 10 nM mifeprisone. Cell lysates were prepared after 24 hours and analyzed by immunoblotting using anti-V5 antibody. FIG. 4B is a graph of mIMCD-3 cells were transfected with 0.2 μg pG5-luc and either 0.2 μg pFC-GV or 0.2 μg pLDLR-GV. After 24 hours, cells were incubated in serum-free media in the presence or absence of 75 μM dantrolene. Relative luciferase activity was determined after 48 h. Data presented are mean ±SE of three separate transfections. The fibrocystin/Gal4-VP16 fusion protein is shown schematically below. Shaded box indicates the transmembrane segment; filled boxes indicate the N-terminal signal sequence and the C-terminal Gal4-VP16 fusion protein. FIG. 4C is an image of a gel illustrating HEK-293 cells transfected with 6 μg pFC-V5, and 8 hours later incubated in serum-free media containing 1-8 mM caffeine, 0.5 μM calphostin, or no additions. Cells were lysed after 16 h, and extracts were analyzed by immunoblotting using anti-V5 antibody. FIG. 4D is a graph of HEK-293 cells transfected with 0.2 μg pFC-GV and 0.2 μg pG5-luc. After 24 hours, cells were incubated in serum-free media containing 5 mM caffeine or no additions. Luciferase activity was measured after 12 hours. Data presented are mean ±SE of three separate transfections. FIG. 4E is an image of a gel illustrating HEK-293 cells stably expressing the m3 muscarinic receptor (lanes 1-4) and untransfected HEK-293 cells (lanes 5-8) were transfected with 6 μg pFC-V5. […] Cells were lysed after 16 hours, and extracts were analyzed by immunoblotting using anti-V5 antibody.
To quantitatively measure fibrocystin cleavage, a luciferase assay was developed that was similar to the ones employed to quantify the proteolytic cleavage of amyloid precursor protein (APP) and low density lipoprotein receptor related protein-1 (LRP1) (Cao, 2001; May, 2003). A plasmid (FC-GV) encoding the synthetic transcription factor Gal4-VP16 fused to the C-terminus of fibrocystin was generated. Proteolytic cleavage of the fibrocystin fusion protein releases Gal4-VP16, which translocates to the nucleus and activates a Gal4-responsive luciferase reporter gene (pG5-luc). Therefore, luciferase expression correlates with fibrocystin cleavage.
To quantify fibrocystin proteolysis in response to intracellular Ca^2+ release, the luciferase reporter assay was employed. HEK-293 cells were cotransfected with the plasmids pFC-GV and pG5-luc and incubated with either 5 mM caffeine or vehicle (as a control).
FIG. 5A is an image of a gel that illustrates HEK-293 cells were transfected with 6 μg pFC-V5.

The test system is the same in test [2]. Put plainly: Immunoblot (anti-V5) of fibrocystin proteolysis in HEK-293 cells transfected with pFC-V5. Format: cell-based, human. The procedure:
as §2
FIG. 5A is an image of a gel that illustrates HEK-293 cells were transfected with 6 μg pFC-V5. […] Fourteen hours later, cellular proteins were extracted and analyzed by immunoblotting using anti-V5 antibody. FIG. 5B is an image of a gel mIMCD3/FC cells were grown for 4 days, and expression of fibrocystin was induced by addition of 10 nM mifepristone. After 24 hours, media were supplemented with 0.1, 0.5, or 1 μM calphostin C. Thirty hours later, cells were harvested, and proteins were analyzed by immunoblotting using anti-V5 antibody. FIG. 5C is an image of a gel illustrating HEK-293 cells were transfected with 3 μg pFC-V5 and either 3 μg of the empty vector pEF-neo (lanes 1 and 3) or 3 μg pEF-PKCαA/E (lanes 2 and 4). After 12 hours media were changed to media containing 10% FCS (lanes 1 and 2) or 0.2% BSA (lanes 3 and 4). Forty-eight hours later, cells were harvested, and proteins were subjected to immunoblotting using anti-V5 antibody. FIG. 5D is a plot illustrating HEK-293 cells transfected with 0.2 μg pG5-luc and 0.2 μg pFC-GV, pLDLR-GV and/or pEF-PKCαA/E. After 16 hours, media were changed to serum-free media containing 100 nM PMA or 500 μM Br-cAMP. Twenty-four hours later, cells were harvested, and relative luciferase activities were determined. Data are the mean ±SE of three independent transfections.
For orientation: A western blot detects proteins with antibodies after separation by electrophoresis.

The subject of test [3] is fibrocystin cleavage in HEK-293(m3) cells. The procedure:
as §2, with “FIG. 4C is an image of a gel illustrating HEK-293 cells transfected with 6 μg pFC-V5, and 8 hours later incubated in serum-free media containing 1-8 mM caffeine, 0.5 μM calphostin, or no additions.” left out, “FIG. 4D is a graph of HEK-293 cells transfected with 0.2 μg pFC-GV and 0.2 μg pG5-luc. After 24 hours, cells were incubated in serum-free media containing 5 mM caffeine or no additions.” left out, “hours.” for “hours. Data presented are mean ±SE of three separate transfections. FIG. 4E is an image of a gel illustrating HEK-293 cells stably expressing the m3 muscarinic receptor (lanes 1-4) and untransfected HEK-293 cells (lanes 5-8) were transfected with 6 μg pFC-V5.”

Test [4] concerns fibrocystin cleavage in mIMCD3/FC cells. Put plainly: Immunoblot (anti-V5) of fibrocystin proteolytic fragments in mIMCD3/FC cells. Format: cell-based, human. The conditions noted are these: FIG. 4A. The procedure: Cell Culture, Transfection and Generation of Stable Cell Lines—mIMCD-3 cells were plated at a density of 500,000 cells/100 mm dish, and 24 hours and 48 hours later the cells were transfected with 2 μg of pFC-V5 using Effectene (Qiagen, Valencia, Calif.). Cells were incubated for an additional 72 hours and lysed in 100 μl buffer containing Tris-buffered saline, 0.5% Triton X-100, protease inhibitor cocktail (Hoffmann-La Roche Inc., Indianapolis, Ind.). Twenty μl of the lysates were analyzed by SDS-PAGE, and immunoblot analysis was performed using HRP-conjugated anti-V5 as described previously (Hiesberger, 2005). mIMCD3/FC and mIMCD3/EGFP cell lines with inducible expression of fibrocystin and EGFP, respectively, were produced by transfecting mIMCD-3 cells with 1.5 μg pSwitch and either 1.5 μg pGeneFC or 1.5 μg pGeneEGFP. Stable transfectants were isolated after 14 days of growth in media containing hygromycin (350 μg/ml) and zeocin (300 μg/ml). To test for inducible expression, cells derived from individual clones were treated with mifepristone (10 nM) for 48 h or left untreated, and proteins were analyzed by immunoblotting using HRP-conjugated anti-FLAG. HEK-293 cells stably transfected with the muscarinic acetylcholine receptor M3 were a generous gift from Trevor Shuttleworth (University of Rochester Medical center) (Yang, 1995).
To further investigate the proteolytic cleavage of fibrocystin, mIMCD3/FC cells were generated, in which the expression of recombinant human fibrocystin can be induced by treatment with mifepristone.
FIG. 4 A is an image of a gel illustrating mIMCD3/FC cells were grown for 4 days and incubated with 0.1 μM thapsigargin (lane 2), 5 mM caffeine (lane 3), 75 μM dantrolene (lane 5), 200 μM ruthenium red (lane 7), or no additions (lanes 1, 4 and 6). After 2 hours, media were replaced with media lacking serum but containing the same supplements, and, in addition, 10 nM mifeprisone. Cell lysates were prepared after 24 hours and analyzed by immunoblotting using anti-V5 antibody. FIG. 4B is a graph of mIMCD-3 cells were transfected with 0.2 μg pG5-luc and either 0.2 μg pFC-GV or 0.2 μg pLDLR-GV. After 24 hours, cells were incubated in serum-free media in the presence or absence of 75 μM dantrolene. Relative luciferase activity was determined after 48 h. Data presented are mean ±SE of three separate transfections. The fibrocystin/Gal4-VP16 fusion protein is shown schematically below. […] Cells were lysed after 16 h, and extracts were analyzed by immunoblotting using anti-V5 antibody. […] Luciferase activity was measured after 12 hours. […] Cells were lysed after 16 hours, and extracts were analyzed by immunoblotting using anti-V5 antibody. […]

Test [5] has as its system fibrocystin cleavage in mIMCD-3 cells. Put plainly: Luciferase reporter assay of fibrocystin cleavage (pFC-GV / pG5-luc) in mIMCD-3 cells. In kind it is cell-based, human. The conditions noted are these: 75 μM dantrolene, serum-free media, luciferase after 48 h, FIG. 4B. As for the experimental part: as §1
FIG. 4 A is an image of a gel illustrating mIMCD3/FC cells were grown for 4 days and incubated with 0.1 μM thapsigargin (lane 2), 5 mM caffeine (lane 3), 75 μM dantrolene (lane 5), 200 μM ruthenium red (lane 7), or no additions (lanes 1, 4 and 6). […] Cell lysates were prepared after 24 hours and analyzed by immunoblotting using anti-V5 antibody. […] Relative luciferase activity was determined after 48 h. […] Cells were lysed after 16 h, and extracts were analyzed by immunoblotting using anti-V5 antibody. […] Luciferase activity was measured after 12 hours. […] Cells were lysed after 16 hours, and extracts were analyzed by immunoblotting using anti-V5 antibody.
To quantitatively measure fibrocystin cleavage, a luciferase assay was developed that was similar to the ones employed to quantify the proteolytic cleavage of amyloid precursor protein (APP) and low density lipoprotein receptor related protein-1 (LRP1) (Cao, 2001; May, 2003). […]

For the compound `Cn1c(=O)c2c(ncn2C)n(C)c1=O` [caffeine], the “increase of luciferase activity” value in test [1] was 10 fold. The fibrocystin proteolysis entry is “triggered fibrocystin proteolysis” in test [2] (5 mM caffeine, untransfected HEK-293 cells, 16 hours, FIG. 4E) and “triggered fibrocystin proteolysis” in test [3]. Moreover, in test [2] (1-8 mM caffeine, serum-free media, HEK-293, lysed after 16 h, FIG. 4C), the proteolysis of fibrocystin entry is on record as “induced dose-dependent proteolysis”. Besides, the “generation of FCA” value in test [4] (pretreatment with 5 mM caffeine, lysates after 24 hours) is “prevented”.

On to `O=C1CN(/N=C/c2ccc(-c3ccc([N+](=O)[O-])cc3)o2)C(O)=N1` [dantrolene], for which, in test [5], the “increase in luciferase activity (FC-GV versus LDLR-GV)” value is “abolished”. In addition, the “formation of FCA” value in test [4] (75 μM dantrolene) is recorded as “abolished”.
